In ChEMBL document CHEMBL1149741, “Further bioactive acetylenic compounds from the Caribbean sponge Cribrochalina vasculum” (J Nat Prod, 1992):
≈ marks a conversion by molar mass, not a printed value. Calls of active or inactive are those of the source. No cut-off for these calls is given here.

Key:
[1] = (§1) Toxicity against Artemia salina; type: organism-based; conditions: in vivo
P388 = experiment: Antitumor activity against mouse P388 cells; type: functional, cell-based
Lymphocyte = experiment: Immunosuppressive activity against lymphocyte by mixed lymphocyte reaction assay; type: functional, cell-based
Artemia salina = experiment: as §1; type: organism-based; conditions: in vivo

C#C[C@H](O)CCCCCCCCCCCCC(C)CCCC (some centres undefined)
LC50 [1]: 1.2 µg/mL (≈ 3.89 µM)

C#C[C@H](O)/C=C/CCCCCCCCCCC(C)CCCC (some centres undefined)
LC50 [1]: 0.8 µg/mL (≈ 2.61 µM)
Activity (P388): Active
Activity (Lymphocyte): Active

C#C[C@H](O)CCCCCCCCCCCCCCCC(C)C
LC50 [1]: 1 µg/mL (≈ 3.24 µM)

C#C/C=C/CCCCCCCCCC/C=C\CCCCCC
LC50 [1]: 1.1 µg/mL (≈ 3.64 µM)

C#C[C@H](O)/C=C/CCCCCCCCC/C=C/CCCCCC
LC50 [1]: 0.4 µg/mL (≈ 1.26 µM)
Activity (P388): Active
Activity (Lymphocyte): Active

C#C[C@H](O)/C=C/CCCCCCCCC(C)CCCCCCCC (some centres undefined)
LC50 [1]: 0.03 µg/mL (≈ 0.0897 µM)

C#CC(O)/C=C/CCCCCCCCC/C=C/CCCCC(C)C (centres undefined)
Activity (Artemia salina): Toxic
Activity (P388): Active
Activity (Lymphocyte): Active

C#C[C@H](O)/C=C/CCCCCCCCCCCCCC(C)C
LC50 [1]: 0.8 µg/mL (≈ 2.61 µM)
Activity (P388): Active
Activity (Lymphocyte): Active

C#CC(O)/C=C/CCCCCCCCCCCCCCC (centres undefined)
Activity (Artemia salina): Toxic
Activity (P388): Active
Activity (Lymphocyte): Active
